Assay results published in patent US7091202B2, “4-arylspirocycloalkyl-2-aminopyrimidine carboxamide KCNQ potassium channel modulators” (Bristol-Myers Squibb Company, priority 2004, dated 2006).

What follows are molecules tested against T1, hQ23 (HEK-293 cell line stably transfected with one of the members of the KCNQ family) (Homo sapiens, UniProt O43525+O43526) (assay: Thallium flux assay for KCNQ channel blockers (FLIPR, BTC dye)). Settings: hQ23 cells, thallium flux.
T1 construct: expressed in transfected cells; host or cells: HEK-293, stably transfected
T1 sequence (O43526 whole entry): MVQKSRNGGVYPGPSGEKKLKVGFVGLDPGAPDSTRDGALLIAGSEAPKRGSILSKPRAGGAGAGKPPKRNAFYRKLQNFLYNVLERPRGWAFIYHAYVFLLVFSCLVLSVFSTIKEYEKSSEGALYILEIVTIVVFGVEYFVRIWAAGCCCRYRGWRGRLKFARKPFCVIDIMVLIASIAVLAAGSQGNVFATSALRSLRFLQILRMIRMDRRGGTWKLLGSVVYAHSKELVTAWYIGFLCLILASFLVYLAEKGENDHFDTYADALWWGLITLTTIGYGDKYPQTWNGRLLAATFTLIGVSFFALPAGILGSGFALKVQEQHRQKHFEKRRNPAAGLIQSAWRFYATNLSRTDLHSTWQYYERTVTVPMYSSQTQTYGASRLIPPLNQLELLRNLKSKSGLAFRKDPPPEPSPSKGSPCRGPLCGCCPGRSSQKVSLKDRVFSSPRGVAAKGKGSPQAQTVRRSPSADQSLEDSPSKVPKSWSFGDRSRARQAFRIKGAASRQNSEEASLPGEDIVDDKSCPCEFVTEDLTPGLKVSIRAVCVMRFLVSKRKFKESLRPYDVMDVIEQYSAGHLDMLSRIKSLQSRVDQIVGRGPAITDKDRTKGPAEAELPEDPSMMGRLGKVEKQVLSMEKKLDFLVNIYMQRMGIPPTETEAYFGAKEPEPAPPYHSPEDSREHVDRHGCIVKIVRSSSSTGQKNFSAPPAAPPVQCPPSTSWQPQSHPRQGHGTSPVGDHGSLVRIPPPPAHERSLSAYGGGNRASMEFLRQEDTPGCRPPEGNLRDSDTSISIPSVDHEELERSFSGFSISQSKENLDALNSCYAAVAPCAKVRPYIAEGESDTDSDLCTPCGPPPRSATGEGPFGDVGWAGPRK
T1 sequence (O43525 whole entry): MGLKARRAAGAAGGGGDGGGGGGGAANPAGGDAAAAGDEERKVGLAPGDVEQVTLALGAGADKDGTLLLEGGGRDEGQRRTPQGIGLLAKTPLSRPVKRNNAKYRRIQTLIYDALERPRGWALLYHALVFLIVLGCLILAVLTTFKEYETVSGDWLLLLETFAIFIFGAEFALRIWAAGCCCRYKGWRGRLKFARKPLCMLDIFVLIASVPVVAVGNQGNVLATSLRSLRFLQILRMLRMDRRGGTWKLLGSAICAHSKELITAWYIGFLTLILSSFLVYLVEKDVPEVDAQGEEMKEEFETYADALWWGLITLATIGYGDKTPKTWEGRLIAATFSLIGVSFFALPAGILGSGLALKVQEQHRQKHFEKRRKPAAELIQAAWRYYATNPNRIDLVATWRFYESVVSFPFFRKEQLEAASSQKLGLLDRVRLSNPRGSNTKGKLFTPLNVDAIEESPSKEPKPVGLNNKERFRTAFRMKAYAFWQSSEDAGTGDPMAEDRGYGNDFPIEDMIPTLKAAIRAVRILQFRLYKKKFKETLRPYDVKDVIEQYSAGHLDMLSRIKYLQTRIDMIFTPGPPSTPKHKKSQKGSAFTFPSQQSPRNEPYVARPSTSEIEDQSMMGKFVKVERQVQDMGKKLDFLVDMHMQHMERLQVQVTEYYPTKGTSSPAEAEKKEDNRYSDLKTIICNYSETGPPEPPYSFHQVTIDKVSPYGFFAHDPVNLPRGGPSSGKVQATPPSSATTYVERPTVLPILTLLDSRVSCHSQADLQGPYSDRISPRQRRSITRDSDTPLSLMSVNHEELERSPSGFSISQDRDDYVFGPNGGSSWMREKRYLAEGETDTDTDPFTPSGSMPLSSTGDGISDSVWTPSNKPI
Assay type: cell-based
Summary of the method: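 HEK-293 cells stably expressing a KCNQ member, loaded with BTC-AM (2 μM) in chloride-free buffer, pH 7.3; compounds added at 1% DMSO, then Tl2SO4 stimulus on FLIPR (488/540 nm, 60 s). Minimal active concentration set at ≥4 SD above negative control; IC50 from 10-point 1:3 series, single-site logistic fit versus the positive-control blocker.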

Row | EC50 [nM] | SMILES
1 | 15 | CC1CCN(c2ncc(C(=O)NC(C)c3cccc4ccccc34)c(C3(c4ccccc4)CCCC3)n2)CC1 (centres unmarked) [Example 98, 5-pyrimidinecarboxamide, 2-(4-methyl-1-piperidinyl)-N-[1-(1-naphthalenyl)ethyl]-4-(1-phenylcyclopentyl)-]
2 | 293 | CCC(C)Nc1ncc(C(=O)NC(C)c2cccc3ccccc23)c(C2(c3ccccc3)CCCC2)n1 (centres unmarked) [Example 99, 5-pyrimidinecarboxamide, 2-[(1-methylpropyl)amino]-N-[1-(1-naphthalenyl)ethyl]-4-(1-phenylcyclopentyl)-]
3 | 160 | CC(NC(=O)c1cnc(NC2CCCC2)nc1C1(c2ccccc2)CCCC1)c1cccc2ccccc12 (centres unmarked) [Example 100, 5-pyrimidinecarboxamide, 2-(cyclopentylamino)-N-[1-(1-naphthalenyl)ethyl]-4-(1-phenylcyclopentyl)-]
4 | 669 | O=C(NCc1cccc2ccccc12)c1cnc(NC2CC2)nc1C1(c2ccccc2)CCCC1 [Example 101, 5-pyrimidinecarboxamide, 2-(cyclopropylamino)-N-(1-naphthalenylmethyl)-4-(1-phenylcyclopentyl)-]
5 | 194 | CC1CCC(Nc2ncc(C(=O)NCc3cccc4ccccc34)c(C3(c4ccccc4)CCCC3)n2)CC1 (centres unmarked) [Example 102, 5-pyrimidinecarboxamide, 2-[(4-methylcyclohexyl)amino]-N-(1-naphthalenylmethyl)-4-(1-phenylcyclopentyl)-]
6 | 66 | CC1CCCN(c2ncc(C(=O)NCc3cccc4ccccc34)c(C3(c4ccccc4)CCCC3)n2)C1 (centres unmarked) [Example 103, 5-pyrimidinecarboxamide, 2-(3-methyl-1-piperidinyl)-N-(1-naphthalenylmethyl)-4-(1-phenylcyclopentyl)-]
7 | 10 | CC1CCN(c2ncc(C(=O)NCc3cccc4ccccc34)c(C3(c4ccccc4)CCCC3)n2)CC1 [Example 104, 5-pyrimidinecarboxamide, 2-(4-methyl-1-piperidinyl)-N-(1-naphthalenylmethyl)-4-(1-phenylcyclopentyl)-]
8 | 604 | CCC(C)Nc1ncc(C(=O)NCc2cccc3ccccc23)c(C2(c3ccccc3)CCCC2)n1 (centres unmarked) [Example 105, 5-pyrimidinecarboxamide, 2-[(1-methylpropyl)amino]-N-(1-naphthalenylmethyl)-4-(1-phenylcyclopentyl)-]
9 | 130 | CC1CCC(Nc2ncc(C(=O)NCc3ccc(Cl)c(Cl)c3)c(C3(c4ccccc4)CCCC3)n2)CC1 (centres unmarked) [Example 106, 5-pyrimidinecarboxamide, N-[(3,4-dichlorophenyl)methyl]-2-[(4-methylcyclohexyl)amino]-4-(1-phenylcyclopentyl)-]
10 | 111 | CC1CCCN(c2ncc(C(=O)NCc3ccc(Cl)c(Cl)c3)c(C3(c4ccccc4)CCCC3)n2)C1 (centres unmarked) [Example 107, 5-pyrimidinecarboxamide, N-[(3,4-dichlorophenyl)methyl]-2-(3-methyl-1-piperidinyl)-4-(1-phenylcyclopentyl)-]
11 | 37 | CC1CCN(c2ncc(C(=O)NCc3ccc(Cl)c(Cl)c3)c(C3(c4ccccc4)CCCC3)n2)CC1 [Example 108, 5-pyrimidinecarboxamide, N-[(3,4-dichlorophenyl)methyl]-2-(4-methyl-1-piperidinyl)-4-(1-phenylcyclopentyl)-]
12 | 504 | O=C(NCc1ccc(Cl)cc1Cl)c1cnc(NC2CC2)nc1C1(c2ccccc2)CCCC1 [Example 109, 5-pyrimidinecarboxamide, 2-(cyclopropylamino)-N-[(2,4-dichlorophenyl)methyl]-4-(1-phenylcyclopentyl)-]
13 | 68 | CC1CCC(Nc2ncc(C(=O)NCc3ccc(Cl)cc3Cl)c(C3(c4ccccc4)CCCC3)n2)CC1 (centres unmarked) [Example 110, 5-pyrimidinecarboxamide, N-[(2,4-dichlorophenyl)methyl]-2-[(4-methylcyclohexyl)amino]-4-(1-phenylcyclopentyl)-]
14 | 192 | O=C(NCc1ccc(Cl)cc1Cl)c1cnc(N2CCCC2)nc1C1(c2ccccc2)CCCC1 [Example 111, 5-pyrimidinecarboxamide, N-[(2,4-dichlorophenyl)methyl]-4-(1-phenylcyclopentyl)-2-(1-pyrrolidinyl)-]
15 | 64 | CC1CCCN(c2ncc(C(=O)NCc3ccc(Cl)cc3Cl)c(C3(c4ccccc4)CCCC3)n2)C1 (centres unmarked) [Example 112, 5-pyrimidinecarboxamide, N-[(2,4-dichlorophenyl)methyl]-2-(3-methyl-1-piperidinyl)-4-(1-phenylcyclopentyl)-]
16 | 10 | CC1CCN(c2ncc(C(=O)NCc3ccc(Cl)cc3Cl)c(C3(c4ccccc4)CCCC3)n2)CC1 [Example 113, 5-pyrimidinecarboxamide, N-[(2,4-dichlorophenyl)methyl]-2-(4-methyl-1-piperidinyl)-4-(1-phenylcyclopentyl)-]

Row | EC50 [nM] | SMILES
17 | 102 | CCC(C)Nc1ncc(C(=O)NCc2ccc(Cl)cc2Cl)c(C2(c3ccccc3)CCCC2)n1 (centres unmarked) [Example 114, 5-pyrimidinecarboxamide, N-[(2,4-dichlorophenyl)methyl]-2-[(1-methylpropyl)amino]-4-(1-phenylcyclopentyl)-]
18 | 136 | O=C(NCc1ccc(Cl)cc1Cl)c1cnc(NC2CCCC2)nc1C1(c2ccccc2)CCCC1 [Example 115, 5-pyrimidinecarboxamide, 2-(cyclopentylamino)-N-[(2,4-dichlorophenyl)methyl]-4-(1-phenylcyclopentyl)-]
19 | 85 | CC1CCC(Nc2ncc(C(=O)NCc3ccc(F)cc3F)c(C3(c4ccccc4)CCCC3)n2)CC1 (centres unmarked) [Example 116, 5-pyrimidinecarboxamide, N-[(2,4-difluorophenyl)methyl]-2-[(4-methylcyclohexyl)amino]-4-(1-phenylcyclopentyl)-]
20 | 127 | O=C(NCc1ccc(F)cc1F)c1cnc(N2CCCC2)nc1C1(c2ccccc2)CCCC1 [Example 117, 5-pyrimidinecarboxamide, N-[(2,4-difluorophenyl)methyl]-4-(1-phenylcyclopentyl)-2-(1-pyrrolidinyl)-]
21 | 37 | CC1CCCN(c2ncc(C(=O)NCc3ccc(F)cc3F)c(C3(c4ccccc4)CCCC3)n2)C1 (centres unmarked) [Example 118, 5-pyrimidinecarboxamide, N-[(2,4-difluorophenyl)methyl]-2-(3-methyl-1-piperidinyl)-4-(1-phenylcyclopentyl)-]
22 | 122 | CC1CCN(c2ncc(C(=O)NCc3ccc(F)cc3F)c(C3(c4ccccc4)CCCC3)n2)CC1 [Example 119, 5-pyrimidinecarboxamide, N-[(2,4-difluorophenyl)methyl]-2-(4-methyl-1-piperidinyl)-4-(1-phenylcyclopentyl)-]
23 | 62 | CCC(C)Nc1ncc(C(=O)NCc2ccc(F)cc2F)c(C2(c3ccccc3)CCCC2)n1 (centres unmarked) [Example 120, 5-pyrimidinecarboxamide, N-[(2,4-difluorophenyl)methyl]-2-[(1-methylpropyl)amino]-4-(1-phenylcyclopentyl)-]
24 | 24 | O=C(NCc1ccc(F)cc1F)c1cnc(NC2CCCC2)nc1C1(c2ccccc2)CCCC1 [Example 121, 5-pyrimidinecarboxamide, 2-(cyclopentylamino)-N-[(2,4-difluorophenyl)methyl]-4-(1-phenylcyclopentyl)-]
25 | 10 | O=C(NCc1cc(F)cc(C(F)(F)F)c1)c1cnc(NC2CC2)nc1C1(c2ccccc2)CCCC1 [Example 122, 5-pyrimidinecarboxamide, 2-(cyclopropylamino)-N-[[3-fluoro-5-(trifluoromethyl)phenyl]methyl]-4-(1-phenylcyclopentyl)-]
26 | 10 | CC1CCC(Nc2ncc(C(=O)NCc3cc(F)cc(C(F)(F)F)c3)c(C3(c4ccccc4)CCCC3)n2)CC1 (centres unmarked) [Example 123, 5-pyrimidinecarboxamide, N-[[3-fluoro-5-(trifluoromethyl)phenyl]methyl]-2-[(4-methylcyclohexyl)amino]-4-(1-phenylcyclopentyl)-]
27 | 240 | O=C(NCc1cc(F)cc(C(F)(F)F)c1)c1cnc(N2CCCC2)nc1C1(c2ccccc2)CCCC1 [Example 124, 5-pyrimidinecarboxamide, N-[[3-fluoro-5-(trifluoromethyl)phenyl]methyl]-4-(1-phenylcyclopentyl)-2-(1-pyrrolidinyl)-]
28 | 375 | CN1CCN(c2ncc(C(=O)NCc3cc(F)cc(C(F)(F)F)c3)c(C3(c4ccccc4)CCCC3)n2)CC1 [Example 125, 5-pyrimidinecarboxamide, N-[[3-fluoro-5-(trifluoromethyl)phenyl]methyl]-2-(4-methyl-1-piperazinyl)-4-(1-phenylcyclopentyl)-]
29 | 319 | CC1CCCN(c2ncc(C(=O)NCc3cc(F)cc(C(F)(F)F)c3)c(C3(c4ccccc4)CCCC3)n2)C1 (centres unmarked) [Example 126, 5-pyrimidinecarboxamide, N-[[3-fluoro-5-(trifluoromethyl)phenyl]methyl]-2-(3-methyl-1-piperidinyl)-4-(1-phenylcyclopentyl)-]
30 | 10 | CC1CCN(c2ncc(C(=O)NCc3cc(F)cc(C(F)(F)F)c3)c(C3(c4ccccc4)CCCC3)n2)CC1 [Example 127, 5-pyrimidinecarboxamide, N-[[3-fluoro-5-(trifluoromethyl)phenyl]methyl]-2-(4-methyl-1-piperidinyl)-4-(1-phenylcylopentyl)-]
31 | 10 | CCC(C)Nc1ncc(C(=O)NCc2cc(F)cc(C(F)(F)F)c2)c(C2(c3ccccc3)CCCC2)n1 (centres unmarked) [Example 128, 5-pyrimidinecarboxamide, N-[[3-fluoro-5-(trifluoromethyl)phenyl]methyl]-2-[(1-methylpropyl)amino]-4-(1-phenylcyclopentyl)-]
32 | 20 | CN(C)CCNc1ncc(C(=O)NCc2cc(F)cc(C(F)(F)F)c2)c(C2(c3ccccc3)CCCC2)n1 [Example 129, 5-pyrimidinecarboxamide, 2-[[2-(dimethylamino)ethyl]amino]-N-[[3-fluoro-5-(trifluoromethyl)phenyl]methyl]-4-(1-phenylcyclopentyl)-]
